Assays:
MeV IC323-eGFP [1] = experiment: MeV infection of NHP: clinical signs and fluorescent rash
Method: Blood samples for hematology analyses were collected at days −1, 0, 1, 2, 3, 6, 9, 13, 16 and 28. Blood samples for flow cytometry analyses were collected at days −1, 3, 6, 9, 13, 16 and 28. Throat swabs were collected at days 0, 1, 2, 3, 6, 9, 13, 16 and 28, using cotton swabs. Oxygen saturation and heartbeat were monitored by a Radical-7® Pulse CO-Oximeter (Masimo) and breathing was monitored by a Dräger Primus anesthesia machine. Hematological parameters were measured on a Procyte DX (IDEXX) and biochemical parameters were evaluated on a Konelab 30 (Thermo Fisher). Development of fluorescent rash was followed using a FastGene Blue/Green LED Flashlight (Nippon genetics).

Vero cells = experiment: Cell toxicity assay (MTT); type: cell-based; settings: doses ranging from 0.5 nM to 4 µM, before and after nebulization, Vero-E6 cells
Method: Vero cells were incubated at 37 °C in the presence or absence of the indicated peptides at indicated concentrations up to 5 μM HRC4 peptide as added into the media, and the cells were incubated a 37 °C. According to the manufacturer’s guidelines, the viability was determined after 24 h using the Vybrant MTT (3- (4, 5-dimethylthiazolyl-2) −2, 5-diphenyltetrazolium bromide) cell proliferation assay kit. TritonX-100 (1%) was used as a positive control. Absorbance was read at 540 nm using a Tecan M1000PRO microplate reader.

MeV IC323-eGFP [2] = experiment: Viremia: GFP+ PBMC by flow cytometry
Method: Whole blood was collected on EDTA, then transferred into BD vacutainer CPT tubes (after removal of anticoagulant solution from CPT tubes) and spun at 2500 g for 20 min. The PBMCs were collected and one-tenth were used to isolate RNA. […] Cells were acquired on a MACSQuant®10 flow cytometer (Miltenyi) and analyzed by FlowJo10.8 (Becton Dickinson) and Kaluza 2.1 (Beckman Coulter).

[3] = Clinical observation for adverse effects after nebulization; settings: during the 28 days after peptide nebulization
[4] = Flow cytometry of major PBMC populations in blood; type: in vivo, cynomolgus macaques; settings: compared to values before the nebulization
[5] = Laser diffraction and output measurement of the nebulized aerosol; type: physicochemical; settings: HRC4 4 mg/ml, 3 ml, prototype mesh nebulizer, laser diffraction; mean +/- SD of four devices
Method: The aerodynamic performances of the aerosols generated by the prototype mesh nebulizer were determined by laser diffraction using a Spraytec™ instrument (Malvern Instruments Ltd., Malvern, UK) and the Spraytec inhalation cell (Malvern Instruments Ltd., Malvern, UK) connected to an aspiration carried out by a vacuum pump set to 30-50 L/min[70]. The prototype mesh nebulizers (n=4) were loaded with 3 ml of either NaCl 0.9% or the HCR4 peptide (4 mg/ml, dissolved as described above) and then connected to the inhalation cell. Nebulization duration was notified at the end of the complete aerosolization of the loaded 3 ml. Diffraction data and volume distribution were automatically registered by the Spraytec software.
The output of nebulizer was determined by the difference between the weight of the nebulizer before and after nebulization and was expressed in percentage of the loaded volume. The output rate of each nebulizer (in ml/min) was then determined as the ratio between the output and the nebulization duration. At least, the residual volume corresponding to the volume of liquid remaining in the reservoir at the end of the nebulization was also determined by weighting the nebulizer before loading it and after nebulization.

MeV IC323-eGFP [6] = experiment: Haematological parameters during MeV infection; type: in vivo, Cynomolgus monkeys (Macaca fascicularis)
Method: Supplementary figure S6. Evolution of the hematological parameters during the MeV infection. Major PBMC populations in blood of cynomolgus macaques were followed using Sysmex XT2000i Vet automatic analyzer, after nebulization of either 3 ml of 0.9% NaCl (C) or […] of HRC4 peptide (P) and MeV infection. Transient lymphopenia is observed in the absence of peptide protection.
Lymphocytes concentration (K/uL)
Monocytes concentration (K/uL)

[7] = Haematological parameters after nebulization; type: in vivo, cynomolgus macaques; settings: noninfected animals, days 1, 2, 3, 6, 28 after nebulization
Method: (§1) Biochemical parameters in the plasma and cellular composition of the blood were evaluated immediately before treatment and 1, 2, 3, 6, and 28 days after nebulization of either saline or HRC4 peptide in non-infected and MeV-infected NHP, to search for early and late toxic effects of the aerosol delivery (Fig. 4). […] In both control and peptide group, few animals experienced transient increase of creatine kinase above physiological values[40] (Fig. 4a), which can be linked to intramuscular anesthesia, as described previously.

MeV = experiment: Plaque reduction assay on Vero-hSLAM cells; settings: fusion inhibition and plaque reduction in vitro before and after nebulization with mesh nebulizer
[8] = ELISA of HRC4 concentration in serum and urine
[9] = ELISA of HRC4-specific IgE in serum; type: in vivo, cynomolgus macaques; settings: up to 4 weeks after nebulization
Method: (§2) Briefly, HRC4 was coated in carbonate buffer pH 9.2 overnight (1 μg /well). […] Rabbit anti-HRC4 Ab followed with anti-rabbit Ab coupled to HRP was used as a positive control. Evaluation of total IgE in the serum was performed using the monkey IgE kit (Ozyme) following the manufacturer’s recommendation.

[10] = Biochemical parameters in plasma after nebulization; type: in vivo, cynomolgus macaques; settings: noninfected animals, days 1, 2, 3, 6, 28 after nebulization
Method: as §1

MeV IC323-eGFP [11] = experiment: ELISA of total MeV-specific immunoglobulin in serum; settings: HRC4-treated animals P1 and P3
Method: Sera of MeV-infected NHPs were tested for the presence of anti-MeV antibodies by ELISA. Briefly, MeV nucleoprotein, produced as described previously[71] was coated onto 96-well ELISA plates overnight (1 μg /well). Plates were blocked using a mix of PBS 1X-Milk 5% for 30 min at room temperature. Serial dilutions (1:50 and then 1:3 serial dilutions until 1:2952450) were done in PBS 1X-Tween 0.05%-Milk and incubated 2 h at RT. […] Optical density was measured at 450 and 620 nm using an ELISA reader (Thermo Fisher) and the absorbance difference between 450 nm and 650 nm was determined and corrected for blank readings. The serum sample was considered positive when its value was higher than three times the average value obtained with the negative sera of the same dilution and the results were expressed as reciprocal value of the last serum dilution giving the measurable values.

[12] = ELISA of total IgE in serum; type: in vivo, cynomolgus macaques; set-up: unit not given here; settings: Peptide group
Method: as §2

Compound: CC[C@H](C)[C@H](NC(=O)[C@H](C)NC(=O)[C@H](CC(N)=O)NC(=O)CNC(=O)[C@H](CC(C)C)NC(=O)[C@H](CC(N)=O)NC(=O)[C@@H](NC(=O)CNC(=O)[C@@H](NC(=O)[C@H](CC(=O)O)NC(=O)[C@H](CC(C)C)NC(=O)[C@H](CCCNC(=N)N)NC(=O)[C@H](CCC(=O)O)NC(=O)[C@H](CC(C)C)NC(=O)[C@H](CO)NC(=O)[C@@H](NC(=O)[C@@H]1CCCN1C(=O)[C@@H]1CCCN1)[C@@H](C)CC)C(C)C)[C@@H](C)O)C(=O)N[C@@H](C)C(=O)N[C@@H](CCCCN)C(=O)N[C@@H](CC(C)C)C(=O)N[C@@H](CCC(=O)O)C(=O)N[C@@H](CC(=O)O)C(=O)N[C@@H](C)C(=O)N[C@@H](CCCCN)C(=O)N[C@@H](CCC(=O)O)C(=O)N[C@@H](CC(C)C)C(=O)N[C@@H](CC(C)C)C(=O)N[C@@H](CCC(=O)O)C(=O)N[C@@H](CO)C(=O)N[C@@H](CO)C(=O)N[C@@H](CC(=O)O)C(=O)N[C@@H](CCC(N)=O)C(=O)N[C@H](C(=O)N[C@@H](CC(C)C)C(=O)N[C@@H](CCCNC(=N)N)C(=O)NCC(=O)N[C@@H](CO)C(=O)NCC(=O)N[C@@H](CO)C(=O)NCC(=O)N[C@@H](CSC1CC(=O)N(CCCC(=O)NCCOCCOCCOCCOCCC(=O)NCCN(CCNC(=O)CCOCCOCCOCCOCCNC(=O)CCCN2C(=O)CC(SC[C@H](NC(=O)CNC(=O)[C@H](CO)NC(=O)CNC(=O)[C@H](CO)NC(=O)CNC(=O)[C@H](CCCNC(=N)N)NC(=O)[C@H](CC(C)C)NC(=O)[C@@H](NC(=O)[C@H](CCC(N)=O)NC(=O)[C@H](CC(=O)O)NC(=O)[C@H](CO)NC(=O)[C@H](CO)NC(=O)[C@H](CCC(=O)O)NC(=O)[C@H](CC(C)C)NC(=O)[C@H](CC(C)C)NC(=O)[C@H](CCC(=O)O)NC(=O)[C@H](CCCCN)NC(=O)[C@H](C)NC(=O)[C@H](CC(=O)O)NC(=O)[C@H](CCC(=O)O)NC(=O)[C@H](CC(C)C)NC(=O)[C@H](CCCCN)NC(=O)[C@H](C)NC(=O)[C@@H](NC(=O)[C@H](C)NC(=O)[C@H](CC(N)=O)NC(=O)CNC(=O)[C@H](CC(C)C)NC(=O)[C@H](CC(N)=O)NC(=O)[C@@H](NC(=O)CNC(=O)[C@@H](NC(=O)[C@H](CC(=O)O)NC(=O)[C@H](CC(C)C)NC(=O)[C@H](CCCNC(=N)N)NC(=O)[C@H](CCC(=O)O)NC(=O)[C@H](CC(C)C)NC(=O)[C@H](CO)NC(=O)[C@@H](NC(=O)[C@@H]3CCCN3C(=O)[C@@H]3CCCN3)[C@@H](C)CC)C(C)C)[C@@H](C)O)[C@@H](C)CC)[C@@H](C)CC)C(=O)O)C2=O)CCO[C@H]2CC[C@@]3(C)C(=CC[C@H]4[C@@H]5CC[C@H]([C@H](C)CCCC(C)C)[C@@]5(C)CC[C@@H]43)C2)C1=O)C(=O)O)[C@@H](C)CC (stereo partly drawn) [HRC4]
- Abrogation of development of MeV infection (MeV IC323-eGFP [1]; absence of fluorescent rash, PBMC infection, viremia, viral shedding and MeV-specific immune response): two out of three animals
- GFP-fluorescent rash (MeV IC323-eGFP [1]; nebulized HRC4 24 h and 6 h before and 24 h after intra-tracheal 10^4 PFU MeV IC323-eGFP, 3 animals): no HRC4-treated animals
- Cytotoxicity (Vero cells): No measurable cytotoxicity
- Duration of viremia (MeV IC323-eGFP [2]; HRC4-treated animal P2 (co-housed with C3)): 6 days
- Infection of PBMCs by flow cytometry (MeV IC323-eGFP [2]; HRC4-treated animal P2, day 9 p.i.): low level
- Adverse effects (pyrexia, allergic reaction) [3]: no adverse effects
- Composition of major PBMC populations in blood [4]: did not reveal any significant changes
- < 2µm [5]: 13.9 +/- 2.0%
- < 5µm [5]: 57.4 +/- 3.9%
- VMD [5]: 4.43 +/- 0.26 µm
- Duration of leukopenia (MeV IC323-eGFP [6]; HRC4-treated animal P2): 9-13 days p.i.
- Total white blood cell and lymphocyte counts (MeV IC323-eGFP [6]; day 6 following MeV infection, HRC4-treated macaques): remained stable
- Hematological parameters [7]: within the physiological levels
- Loss of inhibitory activity by nebulization (MeV): did not cause any loss of activity
- level at time molar at 96 h ([8]; cynomolgus monkey, serum, inhaled or intranasal, 4 mg/kg, [HRC4] nM, serum of NHP, 96 hours post nebulization, single values): 0.285 nM
- HRC4 in urine ([8]; nebulized macaques): absent
- [HRC4] ([8]; serum of NHP, 0 hours post nebulization, single values): 0 nM
- [HRC4] ([8]; serum of NHP, 168 hours post nebulization, single values): 0 nM
- HRC4-specific IgE in serum [9]: did not reveal presence of any HRC4-specific IgE
- Biochemical parameters in plasma [10]: within the physiological levels
- Seroconversion (MeV IC323-eGFP [11]): absence of seroconversion
- Total IgE ([12]; animal column 1, day 0 post nebulization): 1.801
- Total IgE ([12]; animal column 1, day 3 post nebulization): 3.381
- Total IgE ([12]; animal column 1, day 6 post nebulization): 4.651
- Total IgE ([12]; animal column 1, day 13 post nebulization): 17.565
- Total IgE ([12]; animal column 1, day 28 post nebulization): 2.916
- Total IgE ([12]; animal column 2, day 0 post nebulization): 1.21
- Total IgE ([12]; animal column 2, day 3 post nebulization): 1.735
- Total IgE ([12]; animal column 2, day 6 post nebulization): 1.034
- Total IgE ([12]; animal column 2, day 13 post nebulization): 2.308
- Total IgE ([12]; animal column 2, day 28 post nebulization): 3.192
- Total IgE ([12]; animal column 3, day 0 post nebulization): 3.017
- Total IgE ([12]; animal column 3, day 3 post nebulization): 5.929
- Total IgE ([12]; animal column 3, day 6 post nebulization): 6.63
- Total IgE ([12]; animal column 3, day 13 post nebulization): 5.888
- Total IgE ([12]; animal column 3, day 28 post nebulization): 1.999
